In brackets after ≈: the same amount, converted by molar mass. Several values for one entry are separate records, joined by “and”; a condition that tells them apart may be missing. Identical values can stand only once. Counter-ions that a name gives are not always drawn. Like-named read-outs stand apart in the source and are kept apart here.
How the values were obtained:
[1] = pure water at approximately 25° C.; cited from earlier work
[2] = octanol/water partition coefficient, unionized form; cited from earlier work
[3] = Phase-solubility of cholesterol in aqueous cyclodextrin solutions; type: physicochemical; conditions: aqueous solutions of various β-cyclodextrin derivatives (RMβCD, HPβCD, SBEβCD, TMAβCD, CMβCD), ambient temperature (FIG. 7)
From the text: This left a very thin layer of cholesterol on the inner surface of the vials.

[4] = Job's plots (continuous variation, NMR and UV); type: physicochemical; conditions: sodium salts, buffered solutions (FIG. 3)
Procedure: The total molar concentration (i.e., the combined concentration of drug and HPβCD in moles per liter) was kept constant, but the mole fraction of HPβCD (i.e., [HPβCD]/([drug]+[HPβCD])) were varied from 0.1 to 0.9. The buffer salts were dissolved in 30% (v/v) D2O in water and appropriate amounts of drug and HPβCD were dissolved in the buffer solution. […] […]. The NMR spectra were recorded at 297 K on a Bruker AZ250P 250 MHZ spectrometer (USA). The UV-detector used was a Perkin-Elmer Lambda 3A Spectrophotometer (USA).

[5] = Viscosity (Brookfield digital viscometer); type: physicochemical; conditions: 20% (w/v) HPβCD solution
[6] = Phase-solubility in aqueous HPβCD solutions
[7] = Experiment A: solubility of alprazolam and diflunisal sodium salt in 10% HPβCD; conditions: for solubility at 7 days: 22.5 °C, pH 8.36, aqueous with cosolvent or surfactant or cyclodextrin, thermodynamic from solid
[8] = physchem; conditions: 22.5 °C, pH 6, aqueous buffer, thermodynamic from solid
[9] = physchem; conditions: 22.5 °C, pH 8.36, aqueous with cosolvent or surfactant or cyclodextrin, thermodynamic from solid

Compound: β-cyclodextrin sulfobutyl ether sodium salt
- Solubility in water [1]: >500 mg/mL

Compound: CC(C)CCC[C@@H](C)[C@H]1CC[C@H]2[C@@H]3CC=C4C[C@@H](O)CC[C@]4(C)[C@H]3CC[C@]12C [cholesterol]
- log P [2]: 8.5
- type of phase-solubility diagram [3]: AP-type

Compound: CC(C)Cc1ccc(C(C)C(=O)O)cc1 (stereo not shown) [ibuprofen]
- effect of increase in ionic strength on solubility (pH 6): does not effect
- slope of phase-solubility diagram (pH 6): 1.2
- type of phase-solubility diagram (pH 6): AL-type
- mole fraction of HPβCD in the complex (Job's plots) [4]: 0.5

Compound: 2-Hydroxypropyl-β-cyclodextrin
- viscosity [5]: 2.10 cPoise

Compound: CC(C)CCC[C@@H](C)[C@H]1CC[C@H]2C3=CC=C4C[C@@H](O)CC[C@]4(C)[C@H]3CC[C@]12C [dehydrocholesterol]
- log P [2]: 7.8

Compound: CC(C)Cc1ccc(C(C)C(=O)[O-])cc1.[Na+] (stereo not shown) [ibuprofen sodium salt]
- slope of phase-solubility diagram (pH 6.12): 1.12
- slope of phase-solubility diagram (pH 6.28): 1.17
- slope of phase-solubility diagram (pH 6.72): 1.12

Compound: Cc1nnc2n1-c1ccc(Cl)cc1C(c1ccccc1)=NC2 [Alprazolam]
- solubility at 7 days ([6]; 22.5 °C, pH 6, aqueous buffer, thermodynamic from solid): 200 µM (≈ 61.8 µg/mL)
- type of phase-solubility diagram ([6]; HPβCD containing pH 6.0 aqueous phosphate buffer solution, no second drug (FIG. 4)): AL-type
- type of phase-solubility diagram ([6]; aqueous HPβCD solutions saturated with the sodium salt of diflunisal (FIGS. 5, 6)): AL-type
- type of phase-solubility diagram ([6]; in the presence of ibuprofen (FIG. 4A)): AL-type
- increase in solubility ([7]; 10% HPβCD saturated with diflunisal vs 10% HPβCD alone): 108%
- solubility at 7 days ([7]; 10% (w/v) HPβCD solution previously saturated with diflunisal): 1230 µg/mL and 3980 µM
- solubility at 7 days ([7]; 10% aqueous HPβCD solution, unbuffered, room temperature): 590 µg/mL and 1910 µM

Compound: CC/C(=C(/CC)c1ccc(O)cc1)c1ccc(O)cc1 [Diethylstilbestrol]
- solubility at 7 days [8]: 10 µM (≈ 2.68 µg/mL)
- Complexation efficiency (slope/(1 − slope)) (pH 6): 2
- Slope of the phase-solubility diagram (pH 6): 0.71
- shape of phase-solubility diagram (pH 6): non-linear
- type of phase-solubility diagram (pH 6): AL-type

Compound: carotene
- log P [2]: > 10

Compound: O=C(O)Cc1ccccc1Oc1ccc(Cl)cc1Cl [fenclofenac]
- log P [2]: 4.8

Compound: O=C(O)c1cc(-c2ccc(F)cc2F)ccc1O [sodium salt of diflunisal, diflunisal sodium salt]
- slope of phase-solubility diagram (pH 8.36): 1.1
- type of phase-solubility diagram (pH 8.36): AL-type

Compound: O=C(O)c1cc(-c2ccc(F)cc2F)ccc1O [diflunisal]
- slope of phase-solubility diagram (pH 6): 1.1
- type of phase-solubility diagram (pH 6): AL-type
- log P [2]: 4.4
- mole fraction of HPβCD in the complex (Job's plots) [4]: 0.5
- solubility at 7 days [9]: ~47 mg/mL (≈ 188 mM)

Compound: Oc1cc(Cl)ccc1Oc1ccc(Cl)cc1Cl [triclosan]
- log P [2]: 4.8
